The values below come from patent US7256201B2, “Selective estrogen receptor-β ligands” (AstraZeneca AB, priority 2000, dated 2007).

T1 sequence (Q92731 whole entry): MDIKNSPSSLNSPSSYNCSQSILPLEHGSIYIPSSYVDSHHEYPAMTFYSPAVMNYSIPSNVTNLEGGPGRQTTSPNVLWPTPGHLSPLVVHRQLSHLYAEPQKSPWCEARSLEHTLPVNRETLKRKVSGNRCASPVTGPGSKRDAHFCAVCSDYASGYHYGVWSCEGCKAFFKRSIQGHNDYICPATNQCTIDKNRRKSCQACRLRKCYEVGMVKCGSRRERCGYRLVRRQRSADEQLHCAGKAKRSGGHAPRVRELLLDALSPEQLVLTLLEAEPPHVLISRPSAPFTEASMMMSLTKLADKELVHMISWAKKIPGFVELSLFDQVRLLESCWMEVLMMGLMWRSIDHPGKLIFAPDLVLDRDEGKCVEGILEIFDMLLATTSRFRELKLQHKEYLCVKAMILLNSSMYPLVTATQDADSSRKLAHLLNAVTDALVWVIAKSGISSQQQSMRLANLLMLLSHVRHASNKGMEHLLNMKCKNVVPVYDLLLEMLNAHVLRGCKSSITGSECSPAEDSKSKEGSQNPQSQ

The first test concerns the target T1, human recombinant ERβ (Homo sapiens, UniProt Q92731).
T1 construct: purchased PanVera (Madison, Wis.)
Put plainly: Fluorescence polarization estrogen receptor (ERFP) binding assay, ERβ. The settings on record: competition with Fluormone ES2; IC50 converted to Ki by Kenakin formula; read-out: FP β-ER Ki. Here is the method: (§1) A homogeneous mix-and-measure estrogen receptor (ER) binding assay which utilizes fluorescence polarization (FP) technology is used to identify compounds with affinity for the estrogen receptor. Purchased from PanVera (Madison, Wis.), assay reagents include purified human recombinant ERα, human recombinant ERβ, ES2 screening buffer (100 mM potassium phosphate, pH 7.4, 100 μg/mL bovine gamma globulin), and Fluormone™ ES2.
(§2) For competition binding experiments, dilutions of test compounds are prepared at 2× the final assay concentration in 0.2% DMSO in ES2 Screening buffer on TECAN Genosys, and 25 μL compound/well is dispensed into black Costar ½ volume 96-well plates. Dependent upon a lot specific Kd determination, 10-40 nM ERα or 10-40 nM ERβ and 1 nM Fluormone ES2 are then added to these plates in a final assay volume of 50 μL/well. Plates are gently shaken for at least 5 minutes to mix and incubated for at least 1 hr 45 minutes to achieve equilibrium. (Reaction mixtures are stable for up to 5 hours). After centrifugation to remove air bubbles, plates are read on an LJL Analyst or Acquest equipped with Criterion software at the following settings: Fluorescence Polarization Mode; Static Polarizer on Excitation Side; Dynamic Polarizer on Emission Side; Excitation λ=485×/−5 10 nm; Emission λ=520+/−12.5 nm.
(§3) Polarized fluorescence intensity values are collected and subsequently converted electronically to millipolarization (mp) values. Following data reduction and normalization with Excel and/or Prism software, % Ctrl values at the various test concentrations are used to obtain IC50 values via non-linear regression analysis of a four-parameter logistic equation.
(§4) Because ligand depletion is a consideration in this assay (˜40-60% input ES2 is bound in the assay), IC50 values are converted to Ki values through application of the Kenakin formula, as outlined in the reference below, rather than via the more routinely-used Cheng-Prusoff formula.
A general note: Polarisation of emitted light reports the rotation of a fluorescent probe.
On to `CCC1c2ccc(O)cc2CCN1c1ccc(O)cc1` (stereo not shown) [Example 15, 1-Ethyl-2-(4-hydroxy-phenyl)-1,2,3,4-tetrahydro-isoquinolin-6-ol], for which the Ki – broadly, the equilibrium dissociation constant of an inhibitor or competing ligand from its target – was 18 nM.
Same read-out and setting: the same measure for `CC1c2ccc(O)cc2CCN1c1cccc(O)c1` (stereo not shown) [Example 17, 2-(3-Hydroxy-phenyl)-1-methyl-1,2,3,4-tetrahydro-isoquinolin-6-ol]: 34 nM.

Still in this test, the particulars now being: ratio α-ER Ki / β-ER Ki.
As for `CCC1c2ccc(O)cc2CCN1c1ccc(O)cc1` (stereo not shown) [Example 15, 1-Ethyl-2-(4-hydroxy-phenyl)-1,2,3,4-tetrahydro-isoquinolin-6-ol], the “FP Selectivity” value is reported as 3.3.
Still for that read-out and setting: with `CC1c2ccc(O)cc2CCN1c1cccc(O)c1` (stereo not shown) [Example 17, 2-(3-Hydroxy-phenyl)-1-methyl-1,2,3,4-tetrahydro-isoquinolin-6-ol] the figure was 3.3.

A further test deals with T2, human recombinant ERα (Homo sapiens, UniProt P03372).
T2 construct: purchased PanVera (Madison, Wis.)
T2 sequence (P03372 1-595): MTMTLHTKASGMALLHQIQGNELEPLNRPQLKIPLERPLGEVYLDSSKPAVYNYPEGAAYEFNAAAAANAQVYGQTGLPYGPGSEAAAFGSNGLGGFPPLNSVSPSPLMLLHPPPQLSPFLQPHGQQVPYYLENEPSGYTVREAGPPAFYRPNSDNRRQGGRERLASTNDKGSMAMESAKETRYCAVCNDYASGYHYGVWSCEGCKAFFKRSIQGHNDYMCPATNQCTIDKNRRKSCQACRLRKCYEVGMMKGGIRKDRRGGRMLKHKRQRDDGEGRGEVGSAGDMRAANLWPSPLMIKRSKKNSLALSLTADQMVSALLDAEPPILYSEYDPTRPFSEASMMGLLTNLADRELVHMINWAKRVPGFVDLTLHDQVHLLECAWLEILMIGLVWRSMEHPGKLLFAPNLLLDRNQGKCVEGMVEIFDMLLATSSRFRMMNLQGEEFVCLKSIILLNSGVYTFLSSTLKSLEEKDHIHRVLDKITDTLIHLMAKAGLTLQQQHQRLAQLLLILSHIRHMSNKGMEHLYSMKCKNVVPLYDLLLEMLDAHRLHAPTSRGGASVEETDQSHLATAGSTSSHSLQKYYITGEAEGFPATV
Put plainly: Fluorescence polarization estrogen receptor (ERFP) binding assay, ERα. The settings on record: competition with Fluormone ES2; IC50 converted to Ki by Kenakin formula; read-out: FP α-ER Ki. Here is the method:
as §1, §2, §3, §4
Take `CCC1c2ccc(O)cc2CCN1c1ccc(O)cc1` (stereo not shown) [Example 15, 1-Ethyl-2-(4-hydroxy-phenyl)-1,2,3,4-tetrahydro-isoquinolin-6-ol]: the inhibition constant (Ki) was found to be 59 nM.
Turning to `CC1c2ccc(O)cc2CCN1c1cccc(O)c1` (stereo not shown) [Example 17, 2-(3-Hydroxy-phenyl)-1-methyl-1,2,3,4-tetrahydro-isoquinolin-6-ol], the Ki is 110 nM.

In the next test the target is T3, βER (Homo sapiens, UniProt Q92731).
T3 construct: expressed in transfected cells; host or cells: 293 cells (Human Embryonic Kidney, ATCC CRL-1573)
T3 sequence (Q92731 54-530 limits assumed): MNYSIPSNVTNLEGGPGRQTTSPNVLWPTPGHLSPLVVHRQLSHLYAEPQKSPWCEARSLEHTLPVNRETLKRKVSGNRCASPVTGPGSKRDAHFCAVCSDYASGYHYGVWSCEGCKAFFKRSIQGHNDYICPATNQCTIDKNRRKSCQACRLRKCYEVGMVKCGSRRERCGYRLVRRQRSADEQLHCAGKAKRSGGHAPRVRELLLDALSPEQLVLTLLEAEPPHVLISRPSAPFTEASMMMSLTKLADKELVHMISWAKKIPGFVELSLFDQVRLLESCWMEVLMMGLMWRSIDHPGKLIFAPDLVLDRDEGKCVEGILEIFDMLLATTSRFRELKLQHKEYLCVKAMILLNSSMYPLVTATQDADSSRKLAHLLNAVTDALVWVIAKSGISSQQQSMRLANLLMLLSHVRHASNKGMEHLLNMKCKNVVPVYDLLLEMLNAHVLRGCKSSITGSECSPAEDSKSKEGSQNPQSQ
Put plainly: Cell-based assay for ER transcriptional activity (ERE β-gal reporter), βER-transfected 293 cells. The conditions noted are these: 293 cells transfected with βER and ERE reporter. Here is the method: (§5) ERs are ligand-dependent transcription factors that bind the promoter regions of genes at a consensus DNA sequence called the estrogen responsive element (ERE). The ER agonist or antagonist activity of a drug was determined by measuring the amount of reporter enzyme activity expressed from a plasmid under the control of an estrogen-responsive element when cells transiently transfected with ER and the reporter plasmid were exposed to drug. These experiments were conducted according to the following methods.
(§6) Estrogen Receptors alpha (αER, Gen Bank accession #M12674), and beta (βER, Gen Bank #X99101 were cloned into the expression vector pSG5 (Stratagene). A trimer of the vitellogenin-gene estrogen response element (vitERE) was synthesized as an oligonucleotide and attached to a beta-globin basal promoter in a construct named pERE3 gal. This response element and promoter were removed from pERE3 gal by digestion with the endonucleases SpeI (filled with Klenow fragment) and HindIII. This blunt/Hind III fragment was cloned into the β-galactosidase (β-gal) enhancer reporter plasmid (pBGALenh, Stratagene). αER and βER plasmids were purified using a the Endo Free Maxi Kit (Qiagen), and the DNA concentration and purity (A260/280 ratio) were determined spectrophotometrically (Pharmacia). Only DNA with A260/280 ratio of 1.8 and a concentration of >1 ug/uL was used for transfections.
(§7) All Transfections are performed in 293 cells (Human Embryonic Kidney cells ATCC #CRL-1573). Cells are grown in DMEM supplemented with 10% FBS, glutamine, sodium pyruvate and penicilin/streptomycin. Cells are grown to 70% confluency and split 1:4.
(§8) • 1. 293 cells are split the night before onto collagen I-coated 150 mm tissue-culture plates (Biocoat, Becton Dickinson #354551) at a density of 60-70% in DMEM Mediatech 17-205-CV) 10% charcoal-stripped FBS (biocell #6201-31). Approximately 1×10^7 cells/plate will yield 70% confluency. • 2. The next morning, 1 hour prior to transfection, the media is changed to fresh DMEM 10% FBS stripped and supplements. • 3. Transfections are performed using the Profection Kit (Promega #E1200). This kit is based on the calcium-phosphate-mediated transfection technique. Reagents are added in sterile polystyrene tubes in the following order:
(§9) Solution A • 15 μg αER or βER • 45 μg Reporter (pBGALenh or ERE3) • 1.5 mL Sterile Water • 186 μL CaCl2 • *Mix gently
(§10) Solution B • 1.5 mL 2× Hank's Buffered Salt Solution • 4. Using a vortex set on low, add solution A to solution B dropwise. The resulting solution should become milky in color. It is important to achieve thorough mixing. The solution is allowed to settle for 30 minutes, then vortexed before adding the solution to cells. • 5. Add the mixture to 150 mm plates dropwise. Mix well by rocking plates back and forth and side to side gently. After an hour, a very fine precipitate should be seen floating on and above cells under 20× magnification. If this precipitate is not observed, the transfection will not be effective. Incubate the cells for 12 hours. Receptor Stimulation: • 1. The day after transfection, cells are washed 2× with calcium- and magnesium-free Mg free PBS containing 1 mM EGTA (pH 7.6). Cells are trypsinized for 2 min with 3 mL of trypsin-EDTA. Trypsin is neutralized with DMEM 10% FCS. Cells are pelleted at 1000×g for 5 min. The cell pellet is then resuspended in 5 mL DMEM plus 2% phenol-red-free FCS supplemented with glutamine, pyruvate, and Penn/Strep. • 2. 50 μl of the resulting cell suspension is plated into each well of 96-well tissue culture dishes (Biocoat B&D #354407) using a multi-channel pipettor. The dishes have been previously loaded with 50 μL of DMSO-solubilized test compounds at twice the test concentration in DMEM. Data reported are either n=4 wells (single poke) and n=2 wells (9-point concentration-response curves). • 3. Cells are incubated overnight at 37° C. in the selected compounds. Reporter Assay: • 1. […]
As for `CCC1c2ccc(O)cc2CCN1c1ccc(O)cc1` (stereo not shown) [Example 15, 1-Ethyl-2-(4-hydroxy-phenyl)-1,2,3,4-tetrahydro-isoquinolin-6-ol], the EC50 (commonly the concentration needed to bring the measured effect to its halfway point) was determined as 23 nM.
On the same count and under the same terms, the same measure for `CC1c2ccc(O)cc2CCN1c1cccc(O)c1` (stereo not shown) [Example 17, 2-(3-Hydroxy-phenyl)-1-methyl-1,2,3,4-tetrahydro-isoquinolin-6-ol]: 49 nM.

Still in this test, the particulars now being: 293 cells transfected with βER and ERE reporter; maximal response; unit assumed.
The compound `CCC1c2ccc(O)cc2CCN1c1ccc(O)cc1` (stereo not shown) [Example 15, 1-Ethyl-2-(4-hydroxy-phenyl)-1,2,3,4-tetrahydro-isoquinolin-6-ol] returned an ERE β-ER Max of 51%.
For `CC1c2ccc(O)cc2CCN1c1cccc(O)c1` (stereo not shown) [Example 17, 2-(3-Hydroxy-phenyl)-1-methyl-1,2,3,4-tetrahydro-isoquinolin-6-ol], the ERE β-ER Max is 72%.

Staying with this test, now noted: ratio α-ER EC50 / β-ER EC50.
Take `CCC1c2ccc(O)cc2CCN1c1ccc(O)cc1` (stereo not shown) [Example 15, 1-Ethyl-2-(4-hydroxy-phenyl)-1,2,3,4-tetrahydro-isoquinolin-6-ol]: the “ERE Selectivity” value is recorded as 43.
Same read-out and setting: with `CC1c2ccc(O)cc2CCN1c1cccc(O)c1` (stereo not shown) [Example 17, 2-(3-Hydroxy-phenyl)-1-methyl-1,2,3,4-tetrahydro-isoquinolin-6-ol] the figure was 0.1.

The target of a further test is T4, αER (Homo sapiens, UniProt P03372).
T4 construct: expressed in transfected cells; host or cells: 293 cells (Human Embryonic Kidney, ATCC CRL-1573)
T4 sequence (P03372 1-595): T2 sequence (P03372 1-595)
The experiment in a line: Cell-based assay for ER transcriptional activity (ERE β-gal reporter), αER-transfected 293 cells. The conditions noted are these: 293 cells transfected with αER and ERE reporter; maximal response; unit assumed. Here is the method: as §5, §6, §7, §8, §9, §10
For the compound `CCC1c2ccc(O)cc2CCN1c1ccc(O)cc1` (stereo not shown) [Example 15, 1-Ethyl-2-(4-hydroxy-phenyl)-1,2,3,4-tetrahydro-isoquinolin-6-ol], the ERE α-ER Max stood at 37%.
`CC1c2ccc(O)cc2CCN1c1cccc(O)c1` (stereo not shown) [Example 17, 2-(3-Hydroxy-phenyl)-1-methyl-1,2,3,4-tetrahydro-isoquinolin-6-ol] gave an ERE α-ER Max of 87%.

Staying with this test, now noted: 293 cells transfected with αER and ERE reporter; read-out: ERE α-ER EC50.
For the compound `CCC1c2ccc(O)cc2CCN1c1ccc(O)cc1` (stereo not shown) [Example 15, 1-Ethyl-2-(4-hydroxy-phenyl)-1,2,3,4-tetrahydro-isoquinolin-6-ol], the EC50 was found to be 1000 nM.
As to `CC1c2ccc(O)cc2CCN1c1cccc(O)c1` (stereo not shown) [Example 17, 2-(3-Hydroxy-phenyl)-1-methyl-1,2,3,4-tetrahydro-isoquinolin-6-ol], the concentration giving a half-maximal response (EC50) came to 2.5 nM.
